In patent US5955508A, “Method for the enhancement of lymphocyte activity against opportunistic microbial pathogens” (priority 1996, dated 1999):

Legend:
T-cell counts = conditions: AIDS patients; fenfluramine with phentermine; cited from earlier work
fungal infections = conditions: AIDS patients; cited from earlier work
K562 human tumor cells = assay: Natural killer cell cytotoxicity of human PBMC against K562 tumor cells in vitro; type: cell-based
Method: Prior to conducting the above experiment, we examined the dose dependent effects of d-FEN on the ability of human PBMC obtained from five healthy volunteers (person Caucasians) to kill human K562 tumor cells in vitro. The potential cytotoxic enhancing effects of d-FEN and d-norFEN were compared using PBMC from two of the five human donors.
For assessment of immunological parameters of human PBMC, venous blood as aseptically drawn into sterile 10 ml tubes containing 20 U/ml preservative free heparin, diluted with an equal volume of Hank's Balanced Salt Solution (HBSS), layered over Lymphocyte Separation Medium (LSM, Bionetics, Kensington, Md.) and centrifuged at 1,000 ×g for 30 min. After centrifugation, the mononuclear cell layer was recovered from the interface and washed twice in HBSS and enumerated.
The K562 cell line originated from a chronic myelogenous leukemia patient and was obtained from Dr. T. Ellis (Director, Cellular Immunology Laboratory, LUMC). The K562 cells used for assessment of cytotoxic activity were maintained in long term cultures using Corning 25 cm^2 tissue culture flasks (Corning Glass Works, Corning, N.Y.) containing RPMI 1640 (Gibco Laboratories, Grand Island, N.Y.) supplemented with low LPS 10% fetal bovine serum (FBS; Gibco), 100 units/ml penicillin, 100 μg/ml streptomycin (Whittaker M. A. Bioproducts, Walkersville, Md.), 0.1 mM non-essential amino acids, and 2 mM L-glutamine (Gibco). This medium was used throughout, except where noted, and is referred to as "culture medium". The K562 cells were grown in suspension and were passaged three times per week by transfer of 10^6 K562 cells into a flask containing 10 ml of fresh culture medium. The K562 cells injected into the SCID mice were supplemented with fresh medium at a 1:3 dilution the day before administration. They were washed once in medium, pelleted by centrifugation at 500 ×g for 10 min., then resuspended at a concentration of 5×10^7. Subsequently, 0.2 ml (1×10^7 cells) of the cell suspension was injected (i.p.) into each SCID mouse. The K562 cells were administered to the animals four days after the injection of PBMC.
The K562 tumor cell lines maintained in vitro were washed once in culture medium, pelleted by centrifugation at 500×g for 10 min and resuspended in approximately 0.1 ml of culture medium. Subsequently, 100 μCi of [^51 Cr] (New England Nuclear, Boston, Mass.) was added to 1×10^5 cells in a final volume of 0.2 ml. The cells were incubated at 37° C. with 5% CO2 for 1 h with agitation every 10 min, then washed 3 times in HBSS, resuspended to 5×10^4 cells/ml in culture medium and 0.1 ml (5×10^3) aliquoted to each well of a 96 well round bottom assay plate (Corning Glass Works, Corning, N.Y.). Radiolabelled K562 was cultured for 4 h with lymphocytes at effector to target ratios ranging from 50:1 to 6:1. Following 4 h of culture the media was removed using a Skatron harvesting press (Skatron Inc., Sterling, Va.) and associated radioactivity determined. Maximum release was obtained by adding 0.05% Nonidet P-40 (Sigma Chemical Co., St. Louis, Mo.).
The results have been expressed as % cytotoxicity and calculated by the formula: % cytotoxicity=[(experimental DPM-minimum DPM)/(maximum DPM-minimum DPM)]×100.
All experimental means were calculated from triplicate values. Lytic units (LU) were calculated using a computer program written by David Coggins, FCRC, Frederick, Md.

[1] = Plasma d-FEN and d-norFEN levels and half-life in mice; type: in vivo; conditions: mouse; d-FEN p.o. in drinking water; sacrificed 11:00-13:00 h
Method: Mice like rats are prandial drinkers during the dark period of the light-dark cycle. The animals were sacrificed between 11:00 and 13:00 h, 4-6 h after the end of the dark period.

[2] = mouse; cited from earlier work
[3] = system: human percoll-fractionated peripheral blood lymphocytes mediated NK activity; conditions: in vitro, cited from earlier work

## CCNC(C)Cc1cccc(C(F)(F)F)c1 (racemic) [fenfluramine]
T-cell counts
  T-cell counts in words: significant improvement of their T-cell counts

## C[C@@H]1[C@H](O)[C@@H](C)/C=C/C=C/C=C/C=C/C=C/C=C/C=C/[C@H](O[C@@H]2O[C@H](C)[C@@H](O)[C@H](N)[C@@H]2O)C[C@@H]2O[C@](O)(C[C@@H](O)C[C@@H](O)[C@H](O)CC[C@@H](O)C[C@@H](O)CC(=O)O[C@H]1C)C[C@H](O)[C@H]2C(=O)O [amphotericin B]
Fungal infections
  effect on fungal infections in words: can suppress fungal infections, but for the first time appear to have no curative effect in AIDS patients

## C[C@H](N)Cc1cccc(C(F)(F)F)c1 [d-norFEN]
K562 human tumor cells; 0.25 ng/ml, DONOR #1
  percent increase in cytotoxicity: 29%
K562 human tumor cells; 0.25 ng/ml, DONOR #2
  percent increase in cytotoxicity: 19%
K562 human tumor cells; 0.50 ng/ml, DONOR #1
  percent increase in cytotoxicity: 24%
K562 human tumor cells; 0.50 ng/ml, DONOR #2
  percent increase in cytotoxicity: 28%
K562 human tumor cells; 1.00 ng/ml, DONOR #1
  percent increase in cytotoxicity: 11%
K562 human tumor cells; 1.00 ng/ml, DONOR #2
  percent increase in cytotoxicity: 13%
K562 human tumor cells; PBMC of two donors
  d-FEN vs d-norFEN effect on cytotoxicity in words: virtually identical effects
K562 human tumor cells; conclusion
  effect on capacity of human NK cells to kill K562, in words: augments the capacity of human NK cells to kill the human tumor cell line, K562
[1]
  plasma d-FEN and d-norFEN levels at sacrifice: Neither d-FEN nor d-norFEN was detected
[2]
  t1/2: 6 h

## NCCc1c[nH]c2ccc(O)cc12 [5-HT]
[3]; 5-HT dose dependent
  effect on NK activity in words: stimulatory effects
[3]
  duration of NK stimulation: 16 h
